{
  "source": "patent US12245623B2",
  "about": "“Olive oil enriched with oleanolic acid, process for its preparation and use thereof” (CONSEJO SUPERIOR DE INVESTIGACIONES CIENTÍFICAS (CSIC), priority 2018, dated 2025)",
  "key": {"[1]": {"experiment": "Fasting plasma OA levels in the PREDIABOLE Study (GC-MS)", "type": "in vivo, human", "conditions": "both study groups", "description": "At baseline and every six months afterwards, fasting blood samples were taken and analyzed for the serum glucose, insulin and HbA1c levels, as well as the lipid profile (triglycerides, total cholesterol, HDL-c and LDL-c). At each annual visit since the recruitment, participants were submitted to an OGTT. All these analytical determinations were made in the Laboratory of Analysis and Clinical Biochemistry of the ‘Virgen del Rocio’ University Hospital of Seville. In addition, aliquots of all the blood samples were sent to Instituto de la Grasa-CSIC to determine the plasma OA content. Laboratory technicians of both institutions were also blinded to the intervention groups.\nAdherence to the dietary intervention has been assessed through two indirect methods: the self-reported compliance Haynes-Sackett (Rodriguez-Chamorro M A et al. Review of therapeutic compliance measurement tests used in clinical practice. Atencion Primaria 2008, 40, 413-417) test and the delivering of the empty bottles presumably consumed. In addition, the OA plasma levels have been measured, as objective biomarker of compliance, in a random sample of the PREDIABOLE biobank (25 aliquots per study group, corresponding to 0, 12, 18 and 30 months of follow-up). […]"}, "[2]": {"experiment": "Adverse effects in the PREDIABOLE Study (quarterly questioning and retrospective review of electronic medical records)", "type": "in vivo, human", "conditions": "indicated daily dose (55 mL oil, 36 mg OA/day), up to 30 months, humans", "description": "In each quarterly visit during the development of the trial, participants were questioned about the appearance of gastrointestinal disarrays or other kind of discomfort. On the other hand, a family physician not belonging to the study staff, and therefore being unaware of the allocation of the participants to the study groups, carried out a retrospective study using the electronic medical records.\nThey explored for each participant the period comprised between the inclusion in the trial up to two years after its completion, and focused on analytical values of serum creatinine levels (marker of renal function) and alanine and aspartate aminotransferase enzymes (as markers of hepatic alteration). Normal creatinine levels are established in 61.9 to 114.9 μM for men and 53 to 97.2 μM for women. A serum creatinine level 1.5-folds higher than the normal value (≈150 μM) was adopted as criteria of kidney function alteration.\nSince micro and macrovascular disorders are frequently associated to pathological complications of insulin resistance and diabetes, the electronic medical records were also explored for cerebral (transient ischemic stroke and ictus), cardiac (ischemic heart disease, chronic ischemia and effort angina) and peripheral (peripheral arterial disease) vascular diseases. In addition, any other significant adverse event suffered by participants were also took in consideration. […]"}, "[3]": {"conditions": "previous study, Rada et al. 2015; cited from earlier work"}, "[4]": {"conditions": "cited from earlier work"}},
  "data": [
    {"smiles": "CC1(C)CC[C@]2(C(=O)O)CC[C@]3(C)C(=CC[C@@H]4[C@@]5(C)CC[C@H](O)C(C)(C)[C@@H]5CC[C@]43C)[C@@H]2C1", "note": "[OA, 3b-hydroxy-olean-12-en-28-oic acid]", "values": [
      {"measurement": "fasting OA plasma concentration, average value", "setting": "[1]; at the onset of the study", "value": "ca. 160 ng/mL"},
      {"measurement": "concentration at 30 months", "setting": "[1]; human, in vivo, after 30 months of follow-up", "value": "~300", "unit": "ng/mL"},
      {"measurement": "safety of long-term administration", "setting": "[2]", "value": "safe for humans"},
      {"measurement": "mean residence time of OA in human blood after its ingestion", "setting": "[3]", "value": 8.9, "unit": "h"},
      {"measurement": "solubility in aqueous media", "setting": "[4]", "value": "practically insoluble"},
      {"measurement": "solubility in lipophilic matrices", "setting": "[4]", "value": "partially soluble"}
    ]}
  ]
}
